{
  "source": "ChEMBL document CHEMBL3603745",
  "about": "“Synthesis of ciprofloxacin dimers for evaluation of bacterial permeability in atypical chemical space” (Bioorg Med Chem Lett, 2015)",
  "key": {"[1]": {"experiment": "Inhibition of Escherichia coli recombinant gyrase A2B2 assessed as reduction of pHOT-1 supercoiling after 90 mins"}, "[2]": {"test_system": "Escherichia coli", "experiment": "Antibacterial activity against wild type Escherichia coli ATCC 25922 by broth microdilution method", "type": "functional"}, "[3]": {"test_system": "Escherichia coli", "experiment": "Antibacterial activity against wild type Escherichia coli BW5328/pAH69 by broth microdilution method", "type": "functional"}, "[4]": {"test_system": "Escherichia coli", "experiment": "Antibacterial activity against tolC-deficient Escherichia coli JW5503-1 by broth microdilution method", "type": "functional"}, "[5]": {"test_system": "Escherichia coli", "experiment": "Antibacterial activity against tolC-deficient Escherichia coli NB27005-CDY0039 expressing gyrA S83L […], parC S80I mutant by broth microdilution method", "type": "functional"}, "[6]": {"test_system": "Escherichia coli", "experiment": "Antibacterial activity against wild type Escherichia coli MC4100 by broth microdilution method", "type": "functional"}, "[7]": {"test_system": "Escherichia coli", "experiment": "Antibacterial activity against Escherichia coli imp-4213 by broth microdilution method", "type": "functional"}, "[8]": {"test_system": "Escherichia coli", "experiment": "Antibacterial activity against fluoroquinolone-resistant Escherichia coli CH10 harboring gyrA S83L D87N, parC S80I E84G, AcrA+ by broth microdilution method", "type": "functional"}, "[9]": {"test_system": "Staphylococcus aureus", "experiment": "Antibacterial activity against wild type Staphylococcus aureus ATCC 29213 by broth microdilution method", "type": "functional"}, "[10]": {"test_system": "Staphylococcus aureus", "experiment": "Antibacterial activity against wild type methicillin-susceptible Staphylococcus aureus ATCC 49951 by broth microdilution method", "type": "functional"}, "[11]": {"test_system": "Staphylococcus aureus", "experiment": "Antibacterial activity against fluoroquinolone-resistant Staphylococcus aureus NB01006-AVR005 harboring gyrA S84L, parC S80F, parE E471K by broth microdilution method", "type": "functional"}, "[12]": {"test_system": "Pseudomonas aeruginosa", "experiment": "Antibacterial activity against wild type Pseudomonas aeruginosa PAO1 by broth microdilution method", "type": "functional"}, "[13]": {"test_system": "Pseudomonas aeruginosa", "experiment": "Antibacterial activity against Pseudomonas aeruginosa K1542 deficient with mexX, mexB by broth microdilution method", "type": "functional"}, "[14]": {"test_system": "Pseudomonas aeruginosa", "experiment": "Antibacterial activity against mexX, mexB deficient Pseudomonas aeruginosa NB52023-CDK005 harboring gyrAT83I by broth microdilution method", "type": "functional"}, "[15]": {"test_system": "Pseudomonas aeruginosa", "experiment": "Antibacterial activity against mexX, mexB deficient Pseudomonas aeruginosa NB52023-CDK006 harboring gyrAT83I and parC S87L by broth microdilution method", "type": "functional"}},
  "data": [
    {"smiles": "CN(CC(=O)N1CCN(c2cc3c(cc2F)c(=O)c(C(=O)O)cn3C2CC2)CC1)CC(=O)N1CCN(c2cc3c(cc2F)c(=O)c(C(=O)O)cn3C2CC2)CC1", "values": [
      {"measurement": "IC50", "setting": "[1]", "value": 4370, "unit": "nM"},
      {"measurement": "MIC", "setting": "[2]", "value": 0.25, "unit": "µg/mL"},
      {"measurement": "MIC", "setting": "[3]", "value": 0.25, "unit": "µg/mL"},
      {"measurement": "MIC", "setting": "[4]", "value": 0.06, "unit": "µg/mL"},
      {"measurement": "MIC", "setting": "[5]", "value": 32, "unit": "µg/mL"},
      {"measurement": "MIC", "setting": "[6]", "value": 0.25, "unit": "µg/mL"},
      {"measurement": "MIC", "setting": "[7]", "value": 0.06, "unit": "µg/mL"},
      {"measurement": "MIC", "setting": "[8]", "value": "> 32", "unit": "µg/mL"},
      {"measurement": "MIC", "setting": "[9]", "value": 4, "unit": "µg/mL"},
      {"measurement": "MIC", "setting": "[10]", "value": 2, "unit": "µg/mL"},
      {"measurement": "MIC", "setting": "[11]", "value": "> 32", "unit": "µg/mL"},
      {"measurement": "MIC", "setting": "[12]", "value": 2, "unit": "µg/mL"},
      {"measurement": "MIC", "setting": "[13]", "value": 0.5, "unit": "µg/mL"},
      {"measurement": "MIC", "setting": "[14]", "value": 8, "unit": "µg/mL"},
      {"measurement": "MIC", "setting": "[15]", "value": 32, "unit": "µg/mL"}
    ]},
    {"smiles": "O=C(CN1CCN(c2cc3c(cc2F)c(=O)c(C(=O)O)cn3C2CC2)CC1)NCCCN1CCN(CCCNC(=O)CN2CCN(c3cc4c(cc3F)c(=O)c(C(=O)O)cn4C3CC3)CC2)CC1", "values": [
      {"measurement": "IC50", "setting": "[1]", "value": 1590, "unit": "nM"},
      {"measurement": "MIC", "setting": "[2]", "value": "> 32", "unit": "µg/mL"},
      {"measurement": "MIC", "setting": "[3]", "value": "> 32", "unit": "µg/mL"},
      {"measurement": "MIC", "setting": "[4]", "value": 2, "unit": "µg/mL"},
      {"measurement": "MIC", "setting": "[5]", "value": "> 32", "unit": "µg/mL"},
      {"measurement": "MIC", "setting": "[6]", "value": "> 32", "unit": "µg/mL"},
      {"measurement": "MIC", "setting": "[7]", "value": 8, "unit": "µg/mL"},
      {"measurement": "MIC", "setting": "[8]", "value": "> 32", "unit": "µg/mL"},
      {"measurement": "MIC", "setting": "[9]", "value": 32, "unit": "µg/mL"},
      {"measurement": "MIC", "setting": "[10]", "value": 8, "unit": "µg/mL"},
      {"measurement": "MIC", "setting": "[11]", "value": "> 32", "unit": "µg/mL"},
      {"measurement": "MIC", "setting": "[12]", "value": "> 32", "unit": "µg/mL"},
      {"measurement": "MIC", "setting": "[13]", "value": "> 32", "unit": "µg/mL"},
      {"measurement": "MIC", "setting": "[14]", "value": "> 32", "unit": "µg/mL"},
      {"measurement": "MIC", "setting": "[15]", "value": "> 32", "unit": "µg/mL"}
    ]},
    {"smiles": "O=C(CN1CCN(c2cc3c(cc2F)c(=O)c(C(=O)O)cn3C2CC2)CC1)NCCOCCOCCNC(=O)CN1CCN(c2cc3c(cc2F)c(=O)c(C(=O)O)cn3C2CC2)CC1", "values": [
      {"measurement": "IC50", "setting": "[1]", "value": 1040, "unit": "nM"},
      {"measurement": "MIC", "setting": "[2]", "value": 32, "unit": "µg/mL"},
      {"measurement": "MIC", "setting": "[3]", "value": 32, "unit": "µg/mL"},
      {"measurement": "MIC", "setting": "[4]", "value": 4, "unit": "µg/mL"},
      {"measurement": "MIC", "setting": "[5]", "value": "> 32", "unit": "µg/mL"},
      {"measurement": "MIC", "setting": "[6]", "value": 32, "unit": "µg/mL"},
      {"measurement": "MIC", "setting": "[7]", "value": 8, "unit": "µg/mL"},
      {"measurement": "MIC", "setting": "[8]", "value": "> 32", "unit": "µg/mL"},
      {"measurement": "MIC", "setting": "[9]", "value": "> 32", "unit": "µg/mL"},
      {"measurement": "MIC", "setting": "[10]", "value": "> 32", "unit": "µg/mL"},
      {"measurement": "MIC", "setting": "[11]", "value": "> 32", "unit": "µg/mL"},
      {"measurement": "MIC", "setting": "[12]", "value": "> 32", "unit": "µg/mL"},
      {"measurement": "MIC", "setting": "[13]", "value": 32, "unit": "µg/mL"},
      {"measurement": "MIC", "setting": "[14]", "value": "> 32", "unit": "µg/mL"},
      {"measurement": "MIC", "setting": "[15]", "value": "> 32", "unit": "µg/mL"}
    ]},
    {"smiles": "O=C(CCN1CCN(c2cc3c(cc2F)c(=O)c(C(=O)O)cn3C2CC2)CC1)NCCOCCNC(=O)CCN1CCN(c2cc3c(cc2F)c(=O)c(C(=O)O)cn3C2CC2)CC1", "values": [
      {"measurement": "IC50", "setting": "[1]", "value": 9090, "unit": "nM"},
      {"measurement": "MIC", "setting": "[2]", "value": 32, "unit": "µg/mL"},
      {"measurement": "MIC", "setting": "[3]", "value": 32, "unit": "µg/mL"},
      {"measurement": "MIC", "setting": "[4]", "value": 4, "unit": "µg/mL"},
      {"measurement": "MIC", "setting": "[5]", "value": "> 32", "unit": "µg/mL"},
      {"measurement": "MIC", "setting": "[6]", "value": 32, "unit": "µg/mL"},
      {"measurement": "MIC", "setting": "[7]", "value": 8, "unit": "µg/mL"},
      {"measurement": "MIC", "setting": "[8]", "value": "> 32", "unit": "µg/mL"},
      {"measurement": "MIC", "setting": "[9]", "value": "> 32", "unit": "µg/mL"},
      {"measurement": "MIC", "setting": "[10]", "value": "> 32", "unit": "µg/mL"},
      {"measurement": "MIC", "setting": "[11]", "value": "> 32", "unit": "µg/mL"},
      {"measurement": "MIC", "setting": "[12]", "value": "> 32", "unit": "µg/mL"},
      {"measurement": "MIC", "setting": "[13]", "value": "> 32", "unit": "µg/mL"},
      {"measurement": "MIC", "setting": "[14]", "value": "> 32", "unit": "µg/mL"},
      {"measurement": "MIC", "setting": "[15]", "value": "> 32", "unit": "µg/mL"}
    ]}
  ]
}
